Results: paper PMC7318222, “A Family of Water‐Immiscible, Dipolar Aprotic, Diamide Solvents from Succinic Acid” (Chemsuschem, 2020)
Entries after “also recorded” stand apart in the source; their conditions may differ.

Assays:
Miscibility with hexane = type: physicochemical; settings: this work
PR = biological target: T1, PR (Homo sapiens, UniProt P06401); test: PR-anti CALUX reporter gene assay (antagonistic mode); type: cell-based; parameters: key: –: no effect observed up to the highest test concentration; settings: PC20, 24 h exposure
T1 construct: expression construct for the full-length human receptor under investigation; expressed in transfected cells; host or cells: human U2-OS cells (ATCC HTB-96), stably transfected
T1 sequence (P06401 1-933): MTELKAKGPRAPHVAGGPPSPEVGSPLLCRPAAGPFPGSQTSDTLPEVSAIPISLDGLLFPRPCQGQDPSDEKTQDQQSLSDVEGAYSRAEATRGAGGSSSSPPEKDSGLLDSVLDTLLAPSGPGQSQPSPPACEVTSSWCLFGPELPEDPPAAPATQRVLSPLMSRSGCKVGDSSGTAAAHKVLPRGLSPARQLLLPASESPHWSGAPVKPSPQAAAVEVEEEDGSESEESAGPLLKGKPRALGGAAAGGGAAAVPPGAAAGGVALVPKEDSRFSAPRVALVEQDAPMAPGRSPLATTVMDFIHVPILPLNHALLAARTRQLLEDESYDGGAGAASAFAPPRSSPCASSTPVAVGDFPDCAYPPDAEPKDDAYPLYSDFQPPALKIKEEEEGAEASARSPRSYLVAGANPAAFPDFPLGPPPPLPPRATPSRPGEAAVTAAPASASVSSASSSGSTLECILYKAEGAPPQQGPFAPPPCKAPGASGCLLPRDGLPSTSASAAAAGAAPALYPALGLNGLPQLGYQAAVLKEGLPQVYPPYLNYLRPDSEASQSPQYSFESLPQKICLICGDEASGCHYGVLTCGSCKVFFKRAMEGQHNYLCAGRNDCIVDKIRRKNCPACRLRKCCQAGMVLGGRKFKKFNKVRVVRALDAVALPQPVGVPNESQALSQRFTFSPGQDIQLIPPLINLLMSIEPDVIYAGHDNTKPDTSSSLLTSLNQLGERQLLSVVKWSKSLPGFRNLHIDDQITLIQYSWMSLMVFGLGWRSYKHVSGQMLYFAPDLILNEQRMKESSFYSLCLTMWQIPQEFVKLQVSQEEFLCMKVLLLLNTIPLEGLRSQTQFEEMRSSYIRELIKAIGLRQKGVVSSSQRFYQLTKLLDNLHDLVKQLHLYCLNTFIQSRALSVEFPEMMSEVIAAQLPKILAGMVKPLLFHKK
Description: 99.8% (anhydrous), 4-nitroaniline ≥99.0%, 1-octanol ≥99.0%, diglyme ≥99.0%, DMSO-d6 (99.8% D) and chloroform-d (99.8% D) were purchased from Sigma-Aldrich. Toluene ≥99.0%, hexane ≥99.5%, DCM ≥99.5%, chloroform ≥99.5%, DMSO ≥99.0% were purchased from VWR. N,N-diethyl-4-nitroaniline ≥98.0% was purchased from Alfa Aeser. Cyrene was supplied by Circa group. N-butylpyrrolidinone was supplied by Eastman chemicals. N,N-dimethylformamide 99.9% and N,N-dimethylacetamide 99.9% were purchased from Fischer. The flakes of Ultrason® E3020 P Polyarylethersulfone of 55,000 Da were obtained from INGE.BASF, Germany. The CALUX cell lines have been described previously.[1] They are based on human U2-OS cells (ATCC, HTB-96) stably transfected with an expression construct for the full-length human receptor under investigation, and a reporter construct consisting of multimerized responsive elements for the cognate receptor coupled to a minimal promoter element (TATA) and a luciferase gene. Cells were maintained as described previously,[2] using cell culture media and supplements from Fisher Scientific as described in the experimental procedures section. […]
(§1) In vitro reporter gene assays
(§2) The automated CALUX assays were carried out similarly as described earlier,[12] with some adaptations. In brief, the assay was performed in CO2 independent medium (Fisher Scientific, […]
(§3) supplement (Fisher Scientific, 11574466), 10 U/mL penicillin and 10 µg/mL streptomycin. A cell suspension in assay medium was made of 1 × 10^5cells/mL, and white 384-wells plates were seeded with 30 µl cell suspension/well. After 24 h, exposure medium was prepared. A dilution series in 0.5log unit increments of each test compound (in DMSO) was added to a 96-wells plate containing assay medium (2% v/v). Of this exposure mixture, 30 µl was added to the assay plates containing the CALUX cells, resulting in a final DMSO concentration of 1%. Additionally, DMSO blanks and a full dose response curve of the relevant reference compound were included on each plate. All samples were tested in triplicate. The preparation of the compound dilution series as well as the exposure of the cells were performed on a Hamilton StarLET liquid handling robot coupled to a Cytomat incubator.
(§4) Directly after exposure, plates were sealed with non-breathing plate seals (Plate sealer, easy seal transparent; Greiner-Bio-One, 676001). After 24 h the exposure medium was removed using an EL406 washer-dispenser (BioTek) and 10 µl/well triton lysisbuffer was added by the EL406.
(§5) Subsequently, the luciferase signal was measured in a luminometer (InfinitePro coupled to a Connect Stacker, both TECAN). In order to be able to detect receptor antagonism, several assays were also performed in antagonistic mode. The assay procedure was as described above, with the only exception that the EC50 concentration of the reference agonist was present during the exposure.
The luminometer data was analysed as follows; the average of the triplicate wells was determined, and the average blank (DMSO) value was subtracted. […] For antagonist- and cytotoxicity experiments, PC20 values were determined instead, which was defined as the concentration where the test compound causes a 20% decrease in the basal signal, which was […]
(§6) curve, the signal induction above background (DMSO) was determined, and the concentration where the compound elicited a 1.5-fold increase above background was used as LEC.

p21 = p21 CALUX assay (DNA damage response); type: cell-based, human; parameters: key: –: no effect observed up to the highest test concentration; settings: cell signaling pathway assay, 24 h exposure
Description: (§7) Six of the CALUX assays (TCF through p53) detect activation of several cellular signaling pathways, which are indicative of general stress and acute toxicity, but also a range of more specific types of toxicity, including reproductive toxicity. […]
(§8) DCM ≥99.5%, chloroform ≥99.5%, DMSO ≥99.0% were purchased from VWR. […]
(§9) Polyarylethersulfone of 55,000 Da were obtained from INGE.BASF, Germany. The CALUX cell lines have been described previously.[1] They are based on human U2-OS cells (ATCC, HTB-96) stably transfected with an expression construct for the full-length human receptor under investigation, and a reporter construct consisting of multimerized responsive elements for the cognate receptor coupled to a minimal promoter element (TATA) and a luciferase gene. Cells were maintained as described previously,[2] using cell culture media and supplements from Fisher Scientific as described in the experimental procedures section. […]
as §1, §2, §3, §4, §5
(§10) The luminometer data was analysed as follows; the average of the triplicate wells was determined, and the average blank (DMSO) value was subtracted. For receptor-based assays the maximum response elicited by the reference compound was set to 100% (full receptor- or pathway activation), and the other values were scaled accordingly. GraphPad Prism was used to fit a sigmoidal curve through the data (four parameters, variable slope). […] For antagonist- and cytotoxicity experiments, PC20 values were determined instead, which was defined as the concentration where the test compound causes a 20% decrease in the basal signal, which was […]
as §6

p53 = p53 CALUX assay; type: cell-based, human; parameters: key: –: no effect observed up to the highest test concentration; settings: cell signaling pathway assay, 24 h exposure
Description: as §7, §8, §9, §1, §2, §3, §4, §5, §10, §6

[1] = shake flask; GC analysis of both layers with diglyme internal standard (SI); settings: not told

| Structure (SMILES) | Hexane misc. (Miscibility with hexane) | LEC PR‐anti (PR) | LEC p21 (p21) | LEC p53 (p53) | log partition 1-octanol / water [1] |
| --- | --- | --- | --- | --- | --- |
| CCCCN(CC)C(=O)CCC(=O)N(CC)CCCC [EBSA, N,N′‐diethyl‐N,N′‐dibutylsuccindiamide] | yes^[a] | – | – | – | 2.72 log10 of concentration ratio (GC peak-area ratio) |
| CN1CCCC1=O [NMP, N‐methyl‐2‐pyrrolidone, reference compound] | no^[a] | – | −2.0 Log M | – |  |

Further lines, with some results ahead:

| Hexane misc. (Miscibility with hexane) | LEC PR‐anti (PR) | Structure (SMILES) | LEC p21 (p21) | LEC p53 (p53) | log partition 1-octanol / water [1] |
| --- | --- | --- | --- | --- | --- |
| yes^[a] | – | CCCCN(C)C(=O)CCC(=O)N(C)CCCC [MBSA, N,N′‐dimethyl‐N,N′‐dibutylsuccindiamide] | – | – | 1.65 log10 of concentration ratio (GC peak-area ratio) |
| miscible; also recorded: yes^[a] | – | CCCCN1CCCC1=O [NBP, N‐Butylpyrrolidinone, reference compound] | – | – | 0.99 log10 of concentration ratio (GC peak-area ratio) |
| yes^[a] | – | CCCCN(CCCC)C(=O)CCC(=O)N(CCCC)CCCC [TBSA, N,N,N′,N′‐tetrabutylsuccindiamide] | – | – | 3.77 log10 of concentration ratio (GC peak-area ratio) |
